From publication doi:10.1101/2021.04.08.439011v1 (biorxiv, 2021)

Experiments:
PFPK5(P. falciparum) = PFPK5(P. falciparum) (Plasmodium falciparum, UniProt P61075); conditions: 1 µM; binder
EPHB6 = EPHB6 (Homo sapiens, UniProt O15197); conditions: 1 µM; binder
FLT3(N841I) = FLT3(N841I) (Homo sapiens, UniProt P36888, N841I); conditions: 1 µM; binder
MEK5 = MEK5 (Homo sapiens, UniProt Q13163); conditions: 1 µM; binder
HIPK3 = HIPK3 (Homo sapiens, UniProt Q9H422); conditions: 1 µM; binder
HPK1 = HPK1 (Homo sapiens, UniProt Q92918); conditions: 1 µM; binder
CAMK2D = CAMK2D (Homo sapiens, UniProt Q13557); conditions: 1 µM; binder
CAMKK2 = CAMKK2 (Homo sapiens, UniProt Q96RR4); conditions: 1 µM; binder
FER = FER (Homo sapiens, UniProt P16591); conditions: 1 µM; binder
MST4 = MST4 (Homo sapiens, UniProt Q9P289); conditions: 1 µM; binder
JNK2 = JNK2 (Homo sapiens, UniProt P45984); conditions: 1 µM; binder
EGFR(L861Q) = EGFR(L861Q) (Homo sapiens, UniProt P00533, L861Q); conditions: 1 µM; binder
ADCK4 = ADCK4 (Homo sapiens, UniProt Q96D53); conditions: 1 µM; binder
INSRR = INSRR (Homo sapiens, UniProt P14616); conditions: 1 µM; binder
p38-gamma = p38-gamma (Homo sapiens, UniProt P53778); conditions: 1 µM; binder
p38-gamma, sequence (P53778 whole entry): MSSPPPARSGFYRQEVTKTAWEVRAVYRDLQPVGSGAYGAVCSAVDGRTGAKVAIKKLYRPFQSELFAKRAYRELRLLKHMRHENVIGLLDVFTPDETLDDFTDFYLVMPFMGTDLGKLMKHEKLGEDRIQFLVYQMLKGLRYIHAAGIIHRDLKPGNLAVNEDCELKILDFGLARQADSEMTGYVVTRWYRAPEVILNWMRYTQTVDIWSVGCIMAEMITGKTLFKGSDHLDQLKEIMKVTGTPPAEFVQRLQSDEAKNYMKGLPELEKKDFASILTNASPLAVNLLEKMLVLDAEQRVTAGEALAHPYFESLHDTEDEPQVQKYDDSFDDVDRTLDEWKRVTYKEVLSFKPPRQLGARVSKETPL

ABL1-nonphosphorylated = ABL1-nonphosphorylated (Homo sapiens, UniProt P00519); conditions: 1 µM; binder
CDC2L5 = CDC2L5 (Homo sapiens, UniProt Q14004); conditions: 1 µM; binder
SYK = SYK (Homo sapiens, UniProt P43405); conditions: 1 µM; binder
MAP3K15 = MAP3K15 (Homo sapiens, UniProt Q6ZN16); conditions: 1 µM; binder
HASPIN = HASPIN (Homo sapiens, UniProt Q8TF76); conditions: 1 µM; binder
LIMK1 = LIMK1 (Homo sapiens, UniProt P53667); conditions: 1 µM; binder
MTOR = MTOR (Homo sapiens, UniProt P42345); conditions: 1 µM; binder
BMPR1B = BMPR1B (Homo sapiens, UniProt O00238); conditions: 1 µM; binder
PIK3CD = PIK3CD (Homo sapiens, UniProt O00329); conditions: 1 µM; binder
PIK3CD, sequence (O00329 whole entry): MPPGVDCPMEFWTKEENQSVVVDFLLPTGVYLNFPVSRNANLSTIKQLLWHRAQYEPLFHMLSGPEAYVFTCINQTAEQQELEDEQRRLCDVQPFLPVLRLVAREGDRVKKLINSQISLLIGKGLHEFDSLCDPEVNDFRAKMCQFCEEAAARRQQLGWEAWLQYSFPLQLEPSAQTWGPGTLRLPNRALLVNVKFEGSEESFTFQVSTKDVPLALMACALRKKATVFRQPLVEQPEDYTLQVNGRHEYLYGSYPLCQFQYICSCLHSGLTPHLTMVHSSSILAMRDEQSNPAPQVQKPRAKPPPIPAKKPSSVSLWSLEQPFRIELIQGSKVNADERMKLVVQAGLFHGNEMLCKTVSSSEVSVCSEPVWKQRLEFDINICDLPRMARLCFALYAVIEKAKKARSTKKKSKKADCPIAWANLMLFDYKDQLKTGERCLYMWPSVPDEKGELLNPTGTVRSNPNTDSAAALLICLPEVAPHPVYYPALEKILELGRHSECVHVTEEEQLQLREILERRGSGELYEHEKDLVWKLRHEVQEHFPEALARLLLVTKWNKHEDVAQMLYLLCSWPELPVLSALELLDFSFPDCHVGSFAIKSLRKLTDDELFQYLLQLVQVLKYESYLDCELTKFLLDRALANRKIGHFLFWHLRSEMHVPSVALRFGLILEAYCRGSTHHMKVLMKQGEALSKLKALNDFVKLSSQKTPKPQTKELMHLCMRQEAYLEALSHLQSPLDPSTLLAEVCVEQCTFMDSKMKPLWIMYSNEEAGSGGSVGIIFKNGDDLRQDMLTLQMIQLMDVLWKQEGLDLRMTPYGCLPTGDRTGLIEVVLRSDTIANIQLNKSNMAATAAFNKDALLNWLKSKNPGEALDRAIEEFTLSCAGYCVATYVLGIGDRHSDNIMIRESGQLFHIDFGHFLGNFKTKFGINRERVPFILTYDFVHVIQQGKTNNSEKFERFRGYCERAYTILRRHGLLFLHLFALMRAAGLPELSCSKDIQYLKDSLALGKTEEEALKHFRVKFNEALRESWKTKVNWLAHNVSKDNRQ

CDK4 = CDK4 (Homo sapiens, UniProt P11802); conditions: 1 µM; binder
CDK4, sequence (P11802 whole entry): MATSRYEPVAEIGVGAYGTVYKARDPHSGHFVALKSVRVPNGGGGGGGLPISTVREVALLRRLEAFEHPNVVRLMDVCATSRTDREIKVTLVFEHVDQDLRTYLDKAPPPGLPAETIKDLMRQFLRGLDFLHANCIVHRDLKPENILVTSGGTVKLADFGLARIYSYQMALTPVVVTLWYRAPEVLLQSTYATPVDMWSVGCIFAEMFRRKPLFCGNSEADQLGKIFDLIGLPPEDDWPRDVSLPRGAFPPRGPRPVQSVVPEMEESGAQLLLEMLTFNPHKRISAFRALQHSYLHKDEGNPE

JNK1 = JNK1 (Homo sapiens, UniProt P45983); conditions: 1 µM; binder
TRKC = TRKC (Homo sapiens, UniProt Q16288); conditions: 1 µM; binder
TSSK1B = TSSK1B (Homo sapiens, UniProt Q9BXA7); conditions: 1 µM; binder
ERK8 = ERK8 (Homo sapiens, UniProt Q8TD08); conditions: 1 µM; binder
STK33 = STK33 (Homo sapiens, UniProt Q9BYT3); test: biochemical; conditions: read-out: Percent Control
STK33, sequence (Q9BYT3 whole entry): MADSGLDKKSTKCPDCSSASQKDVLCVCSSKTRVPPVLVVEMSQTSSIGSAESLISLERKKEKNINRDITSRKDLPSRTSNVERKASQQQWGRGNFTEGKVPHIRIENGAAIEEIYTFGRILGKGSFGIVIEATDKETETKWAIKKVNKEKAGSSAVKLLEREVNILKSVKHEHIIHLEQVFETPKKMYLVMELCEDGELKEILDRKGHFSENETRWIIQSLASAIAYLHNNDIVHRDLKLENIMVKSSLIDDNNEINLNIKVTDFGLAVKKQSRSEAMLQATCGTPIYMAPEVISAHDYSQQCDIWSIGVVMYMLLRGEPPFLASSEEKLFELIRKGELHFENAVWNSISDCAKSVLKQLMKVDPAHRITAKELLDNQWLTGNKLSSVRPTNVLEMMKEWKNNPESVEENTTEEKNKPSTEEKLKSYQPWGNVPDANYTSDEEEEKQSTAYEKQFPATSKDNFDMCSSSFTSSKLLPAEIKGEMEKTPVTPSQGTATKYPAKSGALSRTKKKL

HIPK3, sequence (Q9H422 whole entry): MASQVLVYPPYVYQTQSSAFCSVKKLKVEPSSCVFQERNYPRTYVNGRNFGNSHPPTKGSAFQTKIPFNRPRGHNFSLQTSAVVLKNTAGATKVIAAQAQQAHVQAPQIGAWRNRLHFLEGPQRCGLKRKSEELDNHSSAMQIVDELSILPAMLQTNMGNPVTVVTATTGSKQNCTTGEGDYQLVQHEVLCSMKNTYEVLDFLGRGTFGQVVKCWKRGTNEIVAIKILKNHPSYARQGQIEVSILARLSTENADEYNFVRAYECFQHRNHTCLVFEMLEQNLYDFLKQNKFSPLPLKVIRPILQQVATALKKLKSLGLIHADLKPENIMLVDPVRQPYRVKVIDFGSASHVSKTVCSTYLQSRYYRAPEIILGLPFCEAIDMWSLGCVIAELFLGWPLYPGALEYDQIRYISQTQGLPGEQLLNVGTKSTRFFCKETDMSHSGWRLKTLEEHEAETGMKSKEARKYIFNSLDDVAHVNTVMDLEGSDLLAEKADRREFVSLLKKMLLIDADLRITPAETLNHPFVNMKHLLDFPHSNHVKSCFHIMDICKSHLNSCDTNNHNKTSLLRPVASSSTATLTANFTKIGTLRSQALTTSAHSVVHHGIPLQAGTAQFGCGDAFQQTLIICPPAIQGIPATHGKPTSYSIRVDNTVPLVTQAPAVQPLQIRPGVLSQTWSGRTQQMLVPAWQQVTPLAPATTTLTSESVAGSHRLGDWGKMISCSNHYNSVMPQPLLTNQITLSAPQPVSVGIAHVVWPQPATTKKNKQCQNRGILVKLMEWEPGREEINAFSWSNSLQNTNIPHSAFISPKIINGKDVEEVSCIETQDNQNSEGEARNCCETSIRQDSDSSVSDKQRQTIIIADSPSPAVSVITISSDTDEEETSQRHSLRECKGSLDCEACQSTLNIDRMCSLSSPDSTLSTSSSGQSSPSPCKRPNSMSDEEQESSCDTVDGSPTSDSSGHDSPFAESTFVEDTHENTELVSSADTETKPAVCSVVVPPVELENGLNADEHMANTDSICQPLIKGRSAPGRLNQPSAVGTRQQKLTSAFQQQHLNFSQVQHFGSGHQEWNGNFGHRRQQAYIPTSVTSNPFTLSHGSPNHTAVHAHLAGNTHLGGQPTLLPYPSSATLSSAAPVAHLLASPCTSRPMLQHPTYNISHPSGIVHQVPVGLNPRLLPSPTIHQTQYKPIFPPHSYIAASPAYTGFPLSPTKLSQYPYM
EPHB6, sequence (O15197 whole entry): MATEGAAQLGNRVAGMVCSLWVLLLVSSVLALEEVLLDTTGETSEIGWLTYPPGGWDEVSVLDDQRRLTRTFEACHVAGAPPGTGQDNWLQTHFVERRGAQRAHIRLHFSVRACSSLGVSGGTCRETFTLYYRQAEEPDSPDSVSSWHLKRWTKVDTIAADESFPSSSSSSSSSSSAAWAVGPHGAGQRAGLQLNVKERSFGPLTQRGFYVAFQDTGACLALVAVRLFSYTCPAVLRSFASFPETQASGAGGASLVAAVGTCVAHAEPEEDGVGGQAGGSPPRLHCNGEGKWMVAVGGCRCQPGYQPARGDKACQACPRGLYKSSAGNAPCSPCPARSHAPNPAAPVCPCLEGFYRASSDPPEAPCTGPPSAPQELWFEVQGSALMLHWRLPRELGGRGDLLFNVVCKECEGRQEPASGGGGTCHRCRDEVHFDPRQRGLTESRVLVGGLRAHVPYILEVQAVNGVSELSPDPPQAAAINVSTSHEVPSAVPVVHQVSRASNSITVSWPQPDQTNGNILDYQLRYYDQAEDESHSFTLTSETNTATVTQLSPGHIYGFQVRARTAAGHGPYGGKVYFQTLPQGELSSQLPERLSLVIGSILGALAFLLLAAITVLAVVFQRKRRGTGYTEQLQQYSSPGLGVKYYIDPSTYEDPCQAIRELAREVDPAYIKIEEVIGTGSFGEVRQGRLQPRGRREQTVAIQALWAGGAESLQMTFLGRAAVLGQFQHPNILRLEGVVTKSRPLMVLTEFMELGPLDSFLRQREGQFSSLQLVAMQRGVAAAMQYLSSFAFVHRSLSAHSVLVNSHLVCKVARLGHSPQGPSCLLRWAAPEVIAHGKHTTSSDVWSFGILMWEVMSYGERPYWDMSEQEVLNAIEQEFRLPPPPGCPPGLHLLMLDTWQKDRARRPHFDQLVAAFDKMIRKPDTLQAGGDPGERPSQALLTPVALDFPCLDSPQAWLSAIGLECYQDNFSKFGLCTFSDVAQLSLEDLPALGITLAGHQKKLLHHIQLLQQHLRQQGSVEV
PFPK5(P. falciparum), sequence (P61075 whole entry): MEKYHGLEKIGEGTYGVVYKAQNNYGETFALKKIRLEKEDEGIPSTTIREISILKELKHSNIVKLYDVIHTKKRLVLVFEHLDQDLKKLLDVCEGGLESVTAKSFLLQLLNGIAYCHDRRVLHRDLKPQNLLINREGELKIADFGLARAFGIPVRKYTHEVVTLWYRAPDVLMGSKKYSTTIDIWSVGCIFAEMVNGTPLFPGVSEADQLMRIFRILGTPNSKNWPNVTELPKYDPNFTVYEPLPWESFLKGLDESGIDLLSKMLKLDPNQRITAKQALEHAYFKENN

`CNc1ncc2cc(-c3ccc(-c4cccc(C)n4)cc3Cl)c(=O)n(C[C@H]3OC[C@H](N)CO3)c2n1` [compound 6, G-5555] was tested, and the “Percent Control” value (PFPK5(P. falciparum)) was 100%, the “Percent Control” value (EPHB6) was 9% and the “Percent Control” value (FLT3(N841I)) was 97%. For the same compound, the “Percent Control” value (MEK5) was 0.2%, the “Percent Control” value (HIPK3) was 100% and the “Percent Control” value (HPK1) was 26%. For the same compound, the “Percent Control” value (CAMK2D) was 100%, the “Percent Control” value (CAMKK2) was 100% and the “Percent Control” value (FER) was 100%. For the same compound, the “Percent Control” value (MST4) was 0%, the “Percent Control” value (JNK2) was 75% and the “Percent Control” value (EGFR(L861Q)) was 100%. For the same compound, the “Percent Control” value (ADCK4) was 100%, the “Percent Control” value (INSRR) was 100% and the “Percent Control” value (p38-gamma) was 100%. The “Percent Control” value (ABL1-nonphosphorylated) was 85%, the “Percent Control” value (CDC2L5) was 97% and the “Percent Control” value (SYK) was 100%. The “Percent Control” value (MAP3K15) was 48%, the “Percent Control” value (HASPIN) was 100% and the “Percent Control” value (LIMK1) was 59%. The “Percent Control” value (MTOR) was 83%, the “Percent Control” value (BMPR1B) was 96% and the “Percent Control” value (PIK3CD) was 97%. The “Percent Control” value (CDK4) was 100%, the “Percent Control” value (JNK1) was 41% and the “Percent Control” value (TRKC) was 96%. The “Percent Control” value (TSSK1B) was 100%, the “Percent Control” value (ERK8) was 100% and the remaining activity at 1 µM (STK33) was 75%.
